Tests used:
[1] = human, in vivo, po; cited from earlier work
SARS-CoV-2 = experiment: microbe, parasite or virus in culture; format: cell-based; settings: Severe acute respiratory syndrome coronavirus 2, Vero C1008; Vero E6 cells, reporter SARS-CoV-2 MOI of 0.1, luciferase activity 24 h post-infection; read-out: antiviral EC50

O=C(Nc1ccc([N+](=O)[O-])cc1Cl)c1cc(Cl)ccc1O [niclosamide, Niclosamide]
tmax (plasma levels peaked) [1]: 4 h
EC50 (SARS-CoV-2): 150 nM
